Experimental data from ChEMBL document CHEMBL4433242, “Rapalogs Potential as Practical Alternatives to Rapamycin” (ACS Med Chem Lett, 2019).

molecular target: Serine/threonine-protein kinase mTOR (Mus musculus, UniProt Q9JLN9); test: Inhibition of mTOR in mouse TSC1-/- MEF cells assessed as inhibition of S6 Ser240/244 phosphorylation incubated for 2 hrs by fluorescence based assay; type: cell-based

IC50	SMILES
0.17 nM	CO[C@@H]1C[C@H](C[C@@H](C)[C@@H]2CC[C@H](C)/C=C(\C)[C@@H](O)[C@@H](OC)C(=O)[C@H](C)C[C@H](C)/C=C/C=C/C=C(\C)C(N3CCS3(=O)=O)C[C@@H]3CC[C@@H](C)[C@@](O)(O3)C(=O)C(=O)N3CCCC[C@H]3C(=O)O2)CC[C@H]1O (stereo not given in full)
153 nM	CO[C@@H]1C[C@H](C[C@@H](C)[C@@H]2CC[C@H](C)/C=C(\C)[C@@H](O)[C@@H](OC)C(=O)[C@H](C)C[C@H](C)/C=C/C=C/C=C(\C)C(N3CCN(CCO)C3=O)C[C@@H]3CC[C@@H](C)[C@@](O)(O3)C(=O)C(=O)N3CCCC[C@H]3C(=O)O2)CC[C@H]1O (stereo not given in full)
0.274 nM	CO[C@@H]1C[C@H](C[C@@H](C)[C@@H]2CC[C@H](C)/C=C(\C)[C@@H](O)[C@@H](OC)C(=O)[C@H](C)C[C@H](C)/C=C/C=C/C=C(\C)[C@H](N3CCCS3(=O)=O)C[C@@H]3CC[C@@H](C)[C@@](O)(O3)C(=O)C(=O)N3CCCC[C@H]3C(=O)O2)CC[C@H]1O

Further lines, the compound ahead of its results:

SMILES	IC50
CO[C@@H]1C[C@H](C[C@@H](C)[C@@H]2CC[C@H](C)/C=C(\C)[C@@H](O)[C@@H](OC)C(=O)[C@H](C)C[C@H](C)/C=C/C=C/C=C(\C)C(N3CCS3(=O)=O)C[C@@H]3CC[C@@H](C)[C@@](O)(O3)C(=O)C(=O)N3CCCC[C@H]3C(=O)O2)CC[C@@H]1n1cnnn1 (stereo not given in full)	0.374 nM
CO[C@@H]1C[C@H](C[C@@H](C)[C@@H]2CC[C@H](C)/C=C(\C)[C@@H](O)[C@@H](OC)C(=O)[C@H](C)C[C@H](C)/C=C/C=C/C=C(\C)C(N3CCCS3(=O)=O)C[C@@H]3CC[C@@H](C)[C@@](O)(O3)C(=O)C(=O)N3CCCC[C@H]3C(=O)O2)CC[C@H]1OP(C)(C)=O (stereo not given in full)	3.2 nM
